The results in this text go back to PMC2698315 (Journal of Chemical Biology, 2008).

Experiment [1] has as its system Vascular endothelial protein tyrosine phosphatase (VE-PTP). The experiment in a line: Phosphatase inhibition assay. Conditions: 4PL fit, 37 °C, 1 mM substrate, Fig. 3b (quadrant 2). The experiment is classed as biochemical.
In experiment [2] the target is vaccinia virus VH1-related (VHR) phosphatase (Homo sapiens, UniProt P51452). Format: biochemical. As to conditions: 4PL fit, 37 °C, 5 mM substrate, Fig. 3a (quadrant 3).
Sequence of vaccinia virus VH1-related (VHR) phosphatase (P51452 whole entry): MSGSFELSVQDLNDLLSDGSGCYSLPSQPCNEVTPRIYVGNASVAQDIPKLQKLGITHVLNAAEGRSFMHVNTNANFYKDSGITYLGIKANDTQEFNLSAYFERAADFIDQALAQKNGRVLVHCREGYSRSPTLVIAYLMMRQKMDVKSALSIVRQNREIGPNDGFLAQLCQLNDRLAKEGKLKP

Usually Hill coefficient stands for a measure of the steepness of the concentration-response curve. For the compound `O=C(O[C@@H]1Cc2c(O)cc(O)cc2O[C@@H]1c1cc(O)c(O)c(O)c1)c1cc(O)c(O)c(O)c1` [compound 172, Epigallocatechin-3-monogallate], the Hill coefficient in experiment [1] is listed as 0.55.

In experiment [2], `CC(C)(c1ccc(NS(=O)(=O)C(F)(F)F)cc1)c1ccc(C(C)(C)c2ccc(NS(=O)(=O)C(F)(F)F)cc2)cc1` [compound 281, bis(4-trifluoromethylsulfonamidophenyl)-1,4-diisopropylbenzene] came in with a Hill coefficient of 2.7.
